Experimental findings from US20200392158A1, “INHIBITORS OF LEUCINE RICH REPEAT KINASE 2” (GLAXOSMITHKLINE INTELLECTUAL PROPERTY DEVELOPMENT LIMITED, priority 2017, published 2020) are described below.

Each structure is given as a SMILES string. Where only a bound is given, the exact number is not on record here.

T1 sequence (Q5S007 with tags, fused parts or gaps R50H): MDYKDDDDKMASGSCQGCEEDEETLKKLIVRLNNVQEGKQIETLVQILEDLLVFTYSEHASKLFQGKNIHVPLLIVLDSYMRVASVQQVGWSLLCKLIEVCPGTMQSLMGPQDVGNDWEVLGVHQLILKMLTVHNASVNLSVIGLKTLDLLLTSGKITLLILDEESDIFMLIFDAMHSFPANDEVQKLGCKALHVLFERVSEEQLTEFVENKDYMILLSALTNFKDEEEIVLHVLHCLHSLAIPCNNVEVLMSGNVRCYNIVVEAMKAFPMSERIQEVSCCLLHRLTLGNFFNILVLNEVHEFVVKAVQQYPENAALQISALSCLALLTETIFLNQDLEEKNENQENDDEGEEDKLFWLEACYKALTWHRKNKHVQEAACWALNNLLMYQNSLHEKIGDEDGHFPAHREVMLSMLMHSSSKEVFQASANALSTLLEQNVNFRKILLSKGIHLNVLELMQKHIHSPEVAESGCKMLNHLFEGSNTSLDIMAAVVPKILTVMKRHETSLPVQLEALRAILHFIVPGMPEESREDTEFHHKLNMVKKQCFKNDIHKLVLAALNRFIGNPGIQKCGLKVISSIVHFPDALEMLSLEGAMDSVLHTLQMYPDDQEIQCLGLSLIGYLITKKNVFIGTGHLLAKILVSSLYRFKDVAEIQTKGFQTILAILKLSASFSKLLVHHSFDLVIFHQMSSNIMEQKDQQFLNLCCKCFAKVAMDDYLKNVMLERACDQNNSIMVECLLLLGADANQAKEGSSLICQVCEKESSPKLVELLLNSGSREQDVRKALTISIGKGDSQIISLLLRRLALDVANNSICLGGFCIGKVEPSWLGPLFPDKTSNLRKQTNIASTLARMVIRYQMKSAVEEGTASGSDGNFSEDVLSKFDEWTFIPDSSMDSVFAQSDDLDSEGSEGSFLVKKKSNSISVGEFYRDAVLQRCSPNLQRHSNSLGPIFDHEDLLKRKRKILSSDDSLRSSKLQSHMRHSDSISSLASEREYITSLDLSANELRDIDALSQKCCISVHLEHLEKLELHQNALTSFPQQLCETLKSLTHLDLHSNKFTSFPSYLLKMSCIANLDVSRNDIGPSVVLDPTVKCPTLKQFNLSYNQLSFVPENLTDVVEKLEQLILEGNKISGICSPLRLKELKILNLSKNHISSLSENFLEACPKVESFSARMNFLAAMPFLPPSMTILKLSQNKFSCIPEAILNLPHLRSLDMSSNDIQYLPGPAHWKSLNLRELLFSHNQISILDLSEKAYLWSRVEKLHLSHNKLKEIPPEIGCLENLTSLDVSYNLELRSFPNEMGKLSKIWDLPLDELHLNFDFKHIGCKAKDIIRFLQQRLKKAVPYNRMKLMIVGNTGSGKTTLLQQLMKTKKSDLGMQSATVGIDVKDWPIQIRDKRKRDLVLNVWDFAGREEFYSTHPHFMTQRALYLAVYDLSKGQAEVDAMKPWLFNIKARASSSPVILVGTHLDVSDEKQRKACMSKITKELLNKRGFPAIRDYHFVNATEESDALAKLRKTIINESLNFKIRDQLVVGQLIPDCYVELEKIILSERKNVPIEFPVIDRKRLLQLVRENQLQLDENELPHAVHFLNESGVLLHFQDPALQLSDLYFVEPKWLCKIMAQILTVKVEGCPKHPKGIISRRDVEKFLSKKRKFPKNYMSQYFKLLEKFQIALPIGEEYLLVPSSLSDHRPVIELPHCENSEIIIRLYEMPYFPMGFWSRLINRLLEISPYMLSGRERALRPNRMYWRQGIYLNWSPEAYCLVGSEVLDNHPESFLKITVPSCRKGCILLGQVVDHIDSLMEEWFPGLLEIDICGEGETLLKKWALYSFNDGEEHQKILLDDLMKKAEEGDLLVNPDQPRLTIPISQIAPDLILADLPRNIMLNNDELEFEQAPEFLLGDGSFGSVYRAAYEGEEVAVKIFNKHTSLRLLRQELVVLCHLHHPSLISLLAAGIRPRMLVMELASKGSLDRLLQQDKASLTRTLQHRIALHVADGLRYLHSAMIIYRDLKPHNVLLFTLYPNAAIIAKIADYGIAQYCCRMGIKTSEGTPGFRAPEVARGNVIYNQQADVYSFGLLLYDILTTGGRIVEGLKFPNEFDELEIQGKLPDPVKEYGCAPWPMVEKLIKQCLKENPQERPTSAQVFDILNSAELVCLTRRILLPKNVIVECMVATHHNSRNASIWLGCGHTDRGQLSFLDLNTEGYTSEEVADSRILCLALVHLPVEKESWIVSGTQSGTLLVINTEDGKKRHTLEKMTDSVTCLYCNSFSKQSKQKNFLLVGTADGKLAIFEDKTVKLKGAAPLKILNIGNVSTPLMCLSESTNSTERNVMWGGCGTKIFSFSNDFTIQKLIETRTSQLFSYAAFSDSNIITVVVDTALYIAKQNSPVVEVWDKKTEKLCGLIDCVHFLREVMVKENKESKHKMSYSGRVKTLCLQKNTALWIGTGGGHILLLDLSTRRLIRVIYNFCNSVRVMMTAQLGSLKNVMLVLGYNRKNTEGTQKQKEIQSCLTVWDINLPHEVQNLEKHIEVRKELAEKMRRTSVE

The experiment concerns the target T1, full length G2019 human LRRK2 (Homo sapiens, UniProt Q5S007, R50H).
T1 construct: made in house; host or cells: HEK293 6E cells transduced with BacMam virus (virus generated in Sf9 cells)
The experiment can be described thus: Full length G2019 human LRRK2 inhibition mass spectrometry assay. In kind it is biochemical. The following applies: LRRKtide to phospho-LRRKtide conversion, RapidFire MS, 2 mM ATP. How it is done: a. Full Length G2019 Human LRRK2 Inhibition Mass Spectrometry Assay
This assay for Leucine Rich Repeat Kinase 2 (LRRK2) inhibition is based on the direct measurement of the peptide ‘LRRKtide’ (LRRKtide: RLGRDKYKT*LRQIRQ and “*” refers to the site of phosphorylation.) and phosphorylated ‘LRRKtide’ using a high throughput Rapid Fire mass spectrometry assay. Inhibitors are compounds that reduce the conversion of LRRKtide to phospho-LRRKtide.
• 1) Compounds were dissolved in 100% DMSO at a concentration of 10 mM, and 11-point dose response curves generated using a 1 in 4 serial dilution in DMSO. 100 nL of this dilution series was then added to a 384 well, v bottom polypropylene plate (Greiner 781280), excluding columns 6 and 18. 100 nL of DMSO were added to column 6 to serve as the high control, while column 18 served as the low control containing assay buffer in place of the LRRK2 protein. Assay dilution gave a top final assay concentration of test compound of […] • 2) 5 μL of ‘enzyme solution’ containing 2× final assay concentration of purified recombinant Full length Flag-LRRK2 in assay buffer (50 mM Hepes, pH 7.2, 10 mM MgCl2, 150 mM NaCl, 5% glycerol, 0.0025% Triton X-100 and 1 mM DTT) were added to all wells using a Multidrop Combi dispenser (ThermoFisher Scientifiec), giving a final assay concentration of 25 nM LRRK2 enzyme (final concentration may vary depending on specific activity of different enzyme batches). • 3) 5 μL of substrate solution containing 50 μM LRRKtide peptide substrate and […] was added to all wells of the plate using a Multidrop Combi dispenser giving a final assay concentration of 25 μM LRRKtide peptide and 2 mM ATP. Test plates were then incubated for 1 hour at room temperature. (Incubation may vary depending on rate and linearity of reaction with different enzyme batches). • 4) 50 μl of 1% formic acid in laboratory grade water was added to all wells to quench the reaction, and plates were heat-sealed prior to centrifugation at 1348×g for 10 minutes. Test plates were then analysed on an Agilent RapidFire High Throughput solid phase extraction system coupled to AB Sciex API 4000 triple quadropole mass spectrometer with the following setting:
• Sip Height=2 mm, Aspirate=500 ms, Load time=3000 ms, Elution time=3000 ms, Requilibration=500 ms. • Flow rates: pump 1=1.5 mL/min, pump 2 1.25 mL/min pump 3=0.8 mL/min
Mass Spectrometer Settings: • LRRKtide Detection settings: Q1 mass 644.8 Da, Q3 mass 638.8, declustering potential 76 volts, collision energy 37 volts, CXP 34 volts. • Phospho-LRRKtide Detection settings: Q1 mass 671.4 Da, Q3 mass 638.8, Declustering potential 76 volts, Collision energy 37 volts, CXP 34 volts. • A C4 cartridge was used and running buffers were: A (aqueous) 0.1% formic acid in water B (organic) 0.1% formic acid, 80% acetonitrile, 20% water. • Collision gas: 12, Curtain gas: 25, Ion Source gas (1): 60, Ion Source gas (2): 60, Ion Spray Voltage: 5500, Temperature: 600, Interface Heater: ON. • Resolution Q1: low, Resolution Q3: low. • 5) Data were analysed using ActivityBase software (IDBS). A percent conversion from LRRKtide to Phospho-LRRKtide was calculated using the following formula:
% conversion=(Phospho-LRRKtide product peak area/(Phospho-LRRKtide product peak area+LRRKtide substrate peak area))*100 • A logistic 4 parameter curve fit was applied, using the following formula,
[formula] • Where x is the concentration of test sample, y is inhibition (%), a is the minimum, b is the Hill slope, c is the IC50 and d is the maximum. From this, the pIC50 was derived (−log IC50).
A word on the IC50: it is the point on the concentration scale where inhibition reaches its midpoint. A lower IC50 goes with higher potency. As to `Cc1c2c(nn1CCN1CCC(F)(F)C1)OCCC(C)Nc1nc(ncc1Cl)N2` (single isomer, unassigned) [E214, 14-Chloro-5-[2-(3,3-difluoropyrrolidin-1-yl)ethyl]-4,11-dimethyl-8-oxa-2,5,6,12,16,17-hexaazatricyclo [11.3.1.0^3,7]heptadeca-1(16),3,6,13(17),14-pentaene], the IC50 is no more than 10 µM. Then `Cc1c2c(nn1C1CCC(C)CC1)OCCC(C)Nc1nc(ncc1Cl)N2` (single isomer, unassigned) [E261, 14-Chloro-4,11-dimethyl-5-(4-methylcyclohexyl)-8-oxa-2,5,6,12,16,17-hexaazatricyclo[11.3.1.0^3,7] heptadeca-1(16),3,6,13(17),14-pentaene], with no more than 10 µM; and `COCC1CCOc2nn(C3CCOCC3F)c(C)c2Nc2ncc(Cl)c(n2)N1` (single isomer, unassigned) [E357, 14-Chloro-5-(3-fluorooxan-4-yl)-11-(methoxymethyl)-4-methyl-8-oxa-2,5,6,12,16,17-hexaazatricyclo [11.3. 1.0^3,7]heptadeca-1(16),3,6,13(17),14-pentaene], with no more than 0.1 µM; and `Cc1c2c(nn1C(C)C1CCOCC1)OCCC(C)Nc1nc(ncc1Cl)N2` (single isomer, unassigned) [E184, 14-Chloro-4,11-dimethyl-5-[1-(oxan-4-yl)ethyl]-8-oxa-2,5,6,12,16,17-hexaazatricyclo[11.3.1.0^3,7]heptadeca-1(16),3,6,13(17),14-pentaene], with no more than 0.1 µM.

`Cc1c2c(nn1C1CCOC(C)C1)OCCCNc1nc(ncc1Cl)N2` (single isomer, unassigned) [E203, 14-Chloro-4-methyl-5-(2-methyloxan-4-yl)-8-oxa-2,5,6,12,16,17-hexaazatricyclo[11.3.1.0^3,7]heptadeca-1(16),3,6,13(17),14-pentaene] gave an IC50 of no more than 0.1 µM.

As for `Cc1c2c(nn1C1CCC(N3CCC(F)C3)CC1)OCCCNc1nc(ncc1Cl)N2` (single isomer, unassigned) [E154, 14-Chloro-5-[4-(3-fluoropyrrolidin-1-yl)cyclohexyl]-4-methyl-8-oxa-2,5,6,12,16,17-hexaazatricyclo[11.3.1. 0^3,7]heptadeca-1(16),3,6,13(17),14-pentaene], the IC50 was no more than 0.1 µM. Take `COC1CNc2nc(ncc2Cl)Nc2c(nn(CC3(C)COC3)c2C)OC1` (single isomer, unassigned) [E273, 14-Chloro-10-methoxy-4-methyl-5-[(3-methyloxetan-3-yl)methyl]-8-oxa-2,5,6,12,16,17-hexaazatricyclo [11.3.1.0^3,7]heptadeca-1(16),3,6,13(17),14-pentaene]: the IC50 is no more than 10 µM. In the case of `Cc1c2c(nn1C(C)C1CCOCC1)OCCC(C)Nc1nc(ncc1Cl)N2` (single isomer, unassigned) [E182, 14-Chloro-4,11-dimethyl-5-[1-(oxan-4-yl)ethyl]-8-oxa-2,5,6,12,16,17-hexaazatricyclo[11.3.1.0^3,7]heptadeca-1(16),3,6,13(17),14-pentaene], the IC50 was no more than 10 µM. The compound `Cc1c2c(nn1C1CC(C)OC(C)C1)OCCC(C)Nc1nc(ncc1Cl)N2` (single isomer, unassigned) [E195, 14-Chloro-5-(2,6-dimethyloxan-4-yl)-4,11-dimethyl-8-oxa-2,5,6,12,16,17-hexaazatricyclo[11.3.1.0^3,7] heptadeca-1(16),3,6,13(17),14-pentaene] had an IC50 of no more than 0.1 µM.

`Cc1c2c(nn1CCN1C[C@H]3C[C@@H]1CO3)OCCC(C)Nc1nc(ncc1Cl)N2` (single isomer, unassigned) [E209] showed an IC50 of no more than 10 µM. `Cc1c2c(nn1C1CN(C3COC3)CCC1F)OCC[C@@H](C)Nc1nc(ncc1Cl)N2` (single isomer, unassigned) [E404] gave an IC50 of no more than 0.1 µM. In turn, `COCC1CCOc2nn(C3CCOCC3F)c(C)c2Nc2ncc(Cl)c(n2)N1` (single isomer, unassigned) [E358, 14-Chloro-5-(3-fluorooxan-4-yl)-11-(methoxymethyl)-4-methyl-8-oxa-2,5,6,12,16,17-hexaazatricyclo [11.3. 1.0^3,7]heptadeca-1(16),3,6,13(17),14-pentaene] gave an IC50 of no more than 0.1 µM.

Turning to `COC1CNc2nc(ncc2Cl)Nc2c(nn(C3CC4CCC(C3)O4)c2C)OC1` (single isomer, unassigned) [E246, 14-Chloro-10-methoxy-4-methyl-5-{8-oxabicyclo[3.2.1]octan-3-yl}-8-oxa-2,5,6,12,16,17-hexaazatricyclo [11.3.1.0^3,7]heptadeca-1(16),3,6,13(17),14-pentaene], the IC50 is no more than 10 µM. As for `Cc1c2c(nn1C(C)C1CCOCC1)OCCC(C)Nc1nc(ncc1Cl)N2` (single isomer, unassigned) [E185, 14-Chloro-4,11-dimethyl-5-[1-(oxan-4-yl)ethyl]-8-oxa-2,5,6,12,16,17-hexaazatricyclo[11.3.1.0^3,7]heptadeca-1(16),3,6,13(17),14-pentaene], the figure is no more than 10 µM; as for `COCC1CCOc2nn(C3CCOCC3F)c(C)c2Nc2ncc(Cl)c(n2)N1` (single isomer, unassigned) [E355, 14-Chloro-5-(3-fluorooxan-4-yl)-11-(methoxymethyl)-4-methyl-8-oxa-2,5,6,12,16,17-hexaazatricyclo [11.3. 1.0^3,7]heptadeca-1(16),3,6,13(17),14-pentaene], no more than 0.1 µM; as for `Cc1c2c(nn1C(C)(C)C(N)=O)OCCCNc1nc(ncc1Cl)N2` [E190, 2-{14-Chloro-4-methyl-8-oxa-2,5,6,12,16,17-hexaazatricyclo [11.3.1.0^3,7]heptadeca-1(16),3,6,13(17),14-pentaen-5-yl}-2-methylpropanamide], no more than 10 µM. Turning to `COCCN1CCC(n2nc3c(c2C)Nc2ncc(Cl)c(n2)NCCCO3)C(F)C1` (single isomer, unassigned) [E60, trans-14-chloro-5-[3-fluoro-1-(2-methoxyethyl)piperidin-4-yl]-4-methyl-8-oxa-2,5,6,12,16,17-hexaazatricyclo[11.3.1.0^3,7]heptadeca 1(16),3,6,13(17),14-pentaene], the IC50 is no more than 0.1 µM. For `Cc1c2c(nn1C1CCOC1)OCCCNc1nc(ncc1Cl)N2` (single isomer, unassigned) [E124, 14-chloro-4-methyl-5-(oxolan-3-yl)-8-oxa-2,5,6,12,16,17-hexaazatricyclo[11.3.1.0^3,7]heptadeca-1(16),3,6,13(17), 14-pentaene], the IC50 is no more than 0.1 µM. `Cc1c2c(nn1CCN1CCC(F)C1)OCCC(C)Nc1nc(ncc1Cl)N2` (single isomer, unassigned) [E216, 14-Chloro-5-[2-(3-fluoropyrrolidin-1-yl)ethyl]-4,11-dimethyl-8-oxa-2,5,6,12,16,17-hexaazatricyclo [11.3.1.0^3,7] heptadeca-1(16),3,6,13(17),14-pentaene] showed an IC50 of 100 µM. Then `Cc1c2c(nn1C1CCOCC1)OCCC(C(F)F)Nc1nc(ncc1Cl)N2` (single isomer, unassigned) [E89, 14-chloro-11-(difluoromethyl)-4-methyl-5-(oxan-4-yl)-8-oxa-2,5,6, 12,16,17-hexaazatricyclo[11.3.1.0^3,7]heptadeca-1(16),3,6,13(17),14-pentaene], with no more than 10 µM.
